Counter-ions that a name gives are not always drawn.

Broadly, the Ki is the dissociation constant of the complex between target and ligand, obtained from inhibition or displacement. Low values mean higher affinity, high ones lower affinity.

T1 sequence (O00187 445-686 limits assumed): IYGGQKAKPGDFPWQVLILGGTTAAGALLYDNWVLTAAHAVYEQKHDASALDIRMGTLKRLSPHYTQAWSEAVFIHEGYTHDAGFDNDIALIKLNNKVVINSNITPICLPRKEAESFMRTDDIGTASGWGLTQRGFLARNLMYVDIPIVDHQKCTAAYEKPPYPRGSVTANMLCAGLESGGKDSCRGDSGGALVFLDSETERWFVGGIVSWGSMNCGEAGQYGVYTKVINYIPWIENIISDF
T1 sequence (O00187 298-444 partner limits assumed): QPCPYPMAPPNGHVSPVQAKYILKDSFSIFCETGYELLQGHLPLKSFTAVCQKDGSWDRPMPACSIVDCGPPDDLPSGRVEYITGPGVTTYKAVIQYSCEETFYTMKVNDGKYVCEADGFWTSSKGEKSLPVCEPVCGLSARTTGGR

This experiment concerns the target T1, MASP-2 (CCP1-CCP2-SP) (Homo sapiens, UniProt O00187).
T1 construct: 15 μL of Enzyme MASP-2 (CCP1-CCP2-SP) in Assay Buffer
In words: Enzymatic Assay for MASP-2. The experiment is classed as biochemical. To be noted: fluorogenic substrate based on C2 cleavage site, room temperature, 20 mM HEPES pH 7.4. In a few lines: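 Fluorogenic substrate modelled on the C2 cleavage site, run at room temperature in 20 mM HEPES pH 7.4, 140 mM NaCl, 0.1% Tween 20; compounds were added from DMSO serial dilutions before enzyme and substrate. Reactions ran 20 min and were stopped with 0.1 M acetic acid before fluorescence was read. % activity was normalised to DMSO-only and no-enzyme controls; IC50 was taken as Ki, with tight- or slow-binding inhibitors handled separately.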
The molecule `O=C(Cn1c(-c2cnn3c2CCCC3)cnc(NCCc2ccccc2)c1=O)NCc1cc2cnccc2[nH]1` [Compound 116, N-((1H-Pyrrolo[3,2-c]pyridin-2-yl)methyl)-2-(2-oxo-3-(phenethylamino)-6-(4,5,6,7-tetrahydropyrazolo[1,5-α]pyridin-3-yl)pyrazin-1(2H)-yl)acetamide] gave a Ki below 500 nM. The figure for `CCOC(=O)CNc1ncc(-c2ccccc2)n(CC(=O)NCc2cc3cnccc3[nH]2)c1=O` [Compound 117, Ethyl (4-(2-(((1H-pyrrolo[3,2-c]pyridin-2-yl)methyl)amino)-2-oxoethyl)-3-oxo-5-phenyl-3,4-dihydropyrazin-2-yl)glycinate] is below 500 nM. `O=C(O)CNc1ncc(-c2ccccc2)n(CC(=O)NCc2cc3cnccc3[nH]2)c1=O` [Compound 118, (4-(2-(((1H-Pyrrolo[3,2-c]Pyridin-2-yl)Methyl)Amino)-2-Oxoethyl)-3-Oxo-5-Phenyl-3,4-Dihydropyrazin-2-yl)Glycine Trifluoroacetate] gave a Ki of 500 to 2500 nM. Molecule `O=C(Cn1c(-c2ccccc2)cnc(N[C@@H](Cc2ccc(O)cc2)C(=O)O)c1=O)NCc1cc2cnccc2[nH]1` [Compound 119, trifluoroacetate] came in with a Ki below 500 nM. For `COCCNc1ncc(-c2ccccc2)n(CC(=O)NCc2cc3cnccc3[nH]2)c1=O` [Compound 120, N-((1H-Pyrrolo[3,2-c]pyridin-2-yl)methyl)-2-(3-((2-methoxyethyl)amino)-2-oxo-6-phenylpyrazin-1(2H)-yl)acetamide trifluoroacetate] the value was below 500 nM; for `COCCCNc1ncc(-c2ccccc2)n(CC(=O)NCc2cc3cnccc3[nH]2)c1=O` [Compound 121, N-((1H-Pyrrolo[3,2-c]pyridin-2-yl)methyl)-2-(3-((3-methoxypropyl)amino)-2-oxo-6-phenylpyrazin-1(2H)-yl)acetamide trifluoroacetate], below 500 nM. `COCCCCNc1ncc(-c2cnn(C)c2)n(CC(=O)NCc2cc3cnccc3[nH]2)c1=O` [Compound 122, N-((1H-Pyrrolo[3,2-c]Pyridin-2-yl)Methyl)-2-(3-((4-Methoxybutyl)Amino)-6-(1-Methyl-1H-Pyrazol-4-yl)-2-Oxopyrazin-1(2H)-yl)Acetamide Trifluoroacetate] registered a Ki below 500 nM. The figure for `Cn1cc(-c2cnc(NCC(F)(F)c3ccccc3)c(=O)n2CC(=O)NCc2cc3cnccc3[nH]2)cn1` [Compound 123, N-((1H-Pyrrolo[3,2-c]Pyridin-2-yl)Methyl)-2-(3-((2,2-Difluoro-2-Phenylethyl)Amino)-6-(1-Methyl-1H-Pyrazol-4-yl)-2-Oxopyrazin-1(2H)-yl)Acetamide Trifluoroacetate] is below 500 nM; for `COCCCCNc1ncc(-c2ccccc2)n(CC(=O)NCc2cc3cnccc3[nH]2)c1=O` [Compound 124, N-((1H-Pyrrolo[3,2-c]pyridin-2-yl)methyl)-2-(3-((4-methoxybutyl)amino)-2-oxo-6-phenylpyrazin-1(2H)-yl)acetamide trifluoroacetate] it is below 500 nM. Consider `Cn1cc(-c2cnc(NCCC(F)F)c(=O)n2CC(=O)NCc2cc3cnccc3[nH]2)cn1` [Compound 125, N-((1H-Pyrrolo[3,2-c]pyridin-2-yl)methyl)-2-(3-((3,3-difluoropropyl)amino)-6-(1-methyl-1H-pyrazol-4-yl)-2-oxopyrazin-1(2H)-yl)acetamide trifluoroacetate], for which the Ki is below 500 nM. For `CCOCCCNc1ncc(-c2ccccc2)n(CC(=O)NCc2cc3cnccc3[nH]2)c1=O` [Compound 126, N-((1H-Pyrrolo[3,2-c]Pyridin-2-yl)Methyl)-2-(3-((3-Ethoxypropyl)Amino)-2-Oxo-6-Phenylpyrazin-1(2H)-yl)Acetamide Trifluoroacetate], the Ki is below 500 nM. Consider `O=C(Cn1c(-c2ccccc2)cnc(NCCC(F)F)c1=O)NCc1cc2cnccc2[nH]1` [Compound 127, N-((1H-Pyrrolo[3,2-c]pyridin-2-yl)methyl)-2-(3-((3,3-difluoropropyl)amino)-2-oxo-6-phenylpyrazin-1(2H)-yl)acetamide trifluoroacetate], for which the Ki was below 500 nM.

The molecule `O=C(Cn1c(-c2ccccc2)cnc(NCC(F)(F)c2ccccc2)c1=O)NCc1cc2cnccc2[nH]1` [Compound 128, N-((1H-Pyrrolo[3,2-c]pyridin-2-yl)methyl)-2-(3-((2,2-difluoro-2-phenylethyl)amino)-2-oxo-6-phenylpyrazin-1(2H)-yl)acetamide trifluoroacetate] returned a Ki below 500 nM.

As for `CCOCCCNc1ncc(-c2cnn(C)c2)n(CC(=O)NCc2cc3cnccc3[nH]2)c1=O` [Compound 129, trifluoroacetate], the Ki was below 500 nM. Regarding `Cn1cc(-c2cnc(NCCc3ccccc3)c(=O)n2CC(=O)NCc2cc(Cl)c3[nH]cnc3c2)cn1` [Compound 130, N-((7-Chloro-1H-Benzo[d]Imidazol-5-yl)Methyl)-2-(6-(1-Methyl-1H-Pyrazol-4-yl)-2-Oxo-3-(Phenethylamino)Pyrazin-1(2H)-yl)Acetamide], the Ki was 2500 to 10000 nM.

In the case of `Cn1cc(-c2cnc(NCCc3ccccc3)c(=O)n2CC(=O)NCc2cnc3[nH]ccc3c2)cn1` [Compound 131, N-((1H-Pyrrolo[2,3-b]Pyridin-5-yl)Methyl)-2-(6-(1-Methyl-1H-Pyrazol-4-yl)-2-Oxo-3-(Phenethylamino)Pyrazin-1(2H)-yl)Acetamide], the Ki is above 10000 nM. The figure for `Cn1cc(-c2cnc(NCCc3ccccc3)c(=O)n2CC(=O)NCc2cc3cnccc3o2)cn1` [Compound 132] is 500 to 2500 nM; for `Cn1cc(-c2cnc(NCCc3ccccc3)c(=O)n2CC(=O)NCc2cc3cnccc3s2)cn1` [Compound 133, 2-(6-(1-Methyl-1H-Pyrazol-4-yl)-2-Oxo-3-(Phenethylamino)Pyrazin-1(2H)-yl)-N-(Thieno[3,2-c]Pyridin-2-Ylmethyl)Acetamide] it is below 500 nM; for `CC(C)Nc1ncc(-c2ccccc2)n(CC(=O)NCc2cc3cnccc3[nH]2)c1=O` [Compound 134, N-((1H-Pyrrolo[3,2-c]Pyridin-2-yl)Methyl)-2-(3-(Isopropylamino)-2-Oxo-6-Phenylpyrazin-1(2H)-yl)Acetamide] it is below 500 nM. The figure for `Cc1ccccc1CCNc1ncc(-c2ccccc2)n(CC(=O)NCc2cc3cnccc3[nH]2)c1=O` [Compound 135, N-((1H-Pyrrolo[3,2-c]pyridin-2-yl)methyl)-2-(3-((2-methylphenethyl)amino)-2-oxo-6-phenylpyrazin-1(2H)-yl)acetamide] is below 500 nM; for `COc1cccc(CCNc2ncc(-c3ccccc3)n(CC(=O)NCc3cc4cnccc4[nH]3)c2=O)c1` [Compound 136, N-((1H-Pyrrolo[3,2-c]pyridin-2-yl)methyl)-2-(3-((3-methoxyphenethyl)amino)-2-oxo-6-phenylpyrazin-1(2H)-yl)acetamide] it is below 500 nM; for `Cc1cccc(CCNc2ncc(-c3ccccc3)n(CC(=O)NCc3cc4cnccc4[nH]3)c2=O)c1` [Compound 137, N-((1H-Pyrrolo[3,2-c]pyridin-2-yl)methyl)-2-(3-((3-methylphenethyl)amino)-2-oxo-6-phenylpyrazin-1(2H)-yl)acetamide] it is below 500 nM.

On to `Cc1ccc(CCNc2ncc(-c3ccccc3)n(CC(=O)NCc3cc4cnccc4[nH]3)c2=O)cc1` [Compound 138, N-((1H-Pyrrolo[3,2-c]pyridin-2-yl)methyl)-2-(3-((4-methylphenethyl)amino)-2-oxo-6-phenylpyrazin-1(2H)-yl)acetamide], for which the Ki was below 500 nM. The figure for `O=C(Cn1c(-c2ccccc2)cnc(N2CC(c3ccccc3)C2)c1=O)NCc1cc2cnccc2[nH]1` [Compound 139, N-((1H-Pyrrolo[3,2-c]pyridin-2-yl)methyl)-2-(2-oxo-6-phenyl-3-(3-phenylazetidin-l-yl)pyrazin-1(2H)-yl)acetamide] is below 500 nM; for `O=C(Cn1c(-c2ccccc2)cnc(N2CCC(c3ccccc3)CC2)c1=O)NCc1cc2cnccc2[nH]1` [Compound 140, N-((1H-Pyrrolo[3,2-c]pyridin-2-yl)methyl)-2-(2-oxo-6-phenyl-3-(4-phenylpiperidin-l-yl)pyrazin-1(2H)-yl)acetamide] it is below 500 nM. In turn, `COc1ccccc1CCNc1ncc(-c2ccccc2)n(CC(=O)NCc2cc3cnccc3[nH]2)c1=O` [Compound 141, N-((1H-Pyrrolo[3,2-c]pyridin-2-yl)methyl)-2-(3-((2-methoxyphenethyl)amino)-2-oxo-6-phenylpyrazin-1(2H)-yl)acetamide] yielded a Ki below 500 nM. The figure for `COc1ccc(CCNc2ncc(-c3ccccc3)n(CC(=O)NCc3cc4cnccc4[nH]3)c2=O)cc1` [Compound 142, N-((1H-Pyrrolo[3,2-c]pyridin-2-yl)methyl)-2-(3-((4-methoxyphenethyl)amino)-2-oxo-6-phenylpyrazin-1(2H)-yl)acetamide] is below 500 nM. For `O=C(Cn1c(-c2ccccc2)cnc(N2CC[C@H](c3ccccc3)C2)c1=O)NCc1cc2cnccc2[nH]1` [Compound 143, (R)-N-((1H-Pyrrolo[3,2-c]pyridin-2-yl)methyl)-2-(2-oxo-6-phenyl-3-(3-phenylpyrrolidin-l-yl)pyrazin-1(2H)-yl)acetamide] the value was below 500 nM. For `O=C(Cn1c(-c2ccccc2)cnc(NCCc2ccccc2F)c1=O)NCc1cc2cnccc2[nH]1` [Compound 144, N-((1H-Pyrrolo[3,2-c]pyridin-2-yl)methyl)-2-(3-((2-fluorophenethyl)amino)-2-oxo-6-phenylpyrazin-1(2H)-yl)acetamide] the value was below 500 nM; for `O=C(Cn1c(-c2ccccc2)cnc(NCCc2cccc(F)c2)c1=O)NCc1cc2cnccc2[nH]1` [Compound 145, N-((1H-Pyrrolo[3,2-c]pyridin-2-yl)methyl)-2-(3-((3-fluorophenethyl)amino)-2-oxo-6-phenylpyrazin-1(2H)-yl)acetamide], below 500 nM.

(Values after patent publication US12110288B2, “MASP-2 inhibitors and methods of use” (Omeros Corporation, priority 2019, dated 2024).)
